How the values were obtained:
EGFR = test system: T1, EGFR; assay: Cellular target engagement assays (competitive pulldown); format: cell-based; details: EGFR^L858R Ba/F3 cells, 6 h pretreatment
T1 construct: expressed in transfected cells; host or cells: Ba/F3 (murine pro-B cells transduced with an EGFR mutant expression vector)
Method: Figure 4 ZNL-0056 covalently engages Cys775 and Cys797 in EGFR Ba/F3 cells. (A) Carton of competition EGFR pulldown strategy to test covalent EGFR engagement in cells. (B) Competitive pulldown assay in EGFR^L858R Ba/F3 cells treated with ZNL-0056 at the indicated concentrations for 6 h. Cell lysates were incubated with bio-osimertinib. (C) Competitive pulldown assay in EGFR^L858R Ba/F3 cells treated with ZNL-0056 at the indicated concentrations for 6 h. Cell lysates were incubated with bio-ZNL-0013, which competes for the binding pocket of the target kinase. (D) Competitive pulldown assay in EGFR^L858R/C797S Ba/F3 cells treated with ZNL-0056 at the indicated concentrations for 6 h. Cell lysates were incubated with bio-ZNL-0013, which competes for the binding pocket of the target kinase. Western blotting showing the pulldown (PD) or input (total lysate) of EGFR. […]
treatment. Cell viability was determined by using CellTiter-Glo (Promega #G7571) according to the manufacturer’s instructions, measuring luminescence using an Envision plate-reader (PerkinElmer Inc.). […]
After 6 hours treatment, cells were pelleted, washed with PBS once and lysed with IP lysis buffer (25mMTris-HCl pH 7.4, 150mM NaCl, 1 mM EDTA, 1% NP-40 and 5% glycerol) (Thermo Fisher Scientific, Cat#87788) containing protease/phosphatase inhibitor cocktail (Roche). The protein concentrations were measured by BCA analysis (Pierce). […]

EGFR^L858R kinase domain = test system: T2, EGFR^L858R kinase domain; assay: Determining sites of probe modification by MS; format: biochemical; details: EGFR^L858R protein, mass spectrometry
T2 construct: purified recombinant EGFR^L858R kinase domain treated by the compounds; made in house
Text: Covalent docking (CovDock in Schrodinger software suite) was used to predict binding modes and scores of designed bident and mono-valent molecules. Thorough mode was used for docking and top 5 poses for each molecule were inspected visually to identify the most likely binding conformation based on the known core scaffold binding mode. Hinge hydrogen bonds of the core scaffolds were used as constraints in docking calculations. […]
reactive residues, only one cysteine was specified for covalent bond formation during docking of […]
for bident molecules, a proper binding mode required the other warhead in close proximity with its intended reactive cysteine. To obtain the final predicted binding mode in Figure 2B, the pre-reaction cysteine and warhead were manually linked with proper chemical bond, and the complex was optimized using receptor-ligand complex optimization protocol in Schrodinger suite with default settings. The final optimized complex was compared against the original binding mode to ensure minimal changes to the ligand and receptor residue conformations. […]
EGFR protein was treated with indicated probe for 2 hours at 30 °C in 50 mM HEPES buffer 100 mM NaCl pH 7.5. […] Peptides were desalted by C18 and analyzed by nanoLC-MS using a Waters NanoAcquity UPLC (Waters, Milford, MA) interfaced to a Orbitrap QExactive HF mass spectrometer (ThermoFisher Scientific, San Jose, CA). […]

SMILES: C=CC(=O)Nc1cc(C(=O)Nc2nc3cccc(C)c3n2[C@@H]2CCCCN(C(=O)C=C)C2)cs1 [ZNL-0056]
- prevention of EGFR binding to osimertinib-biotin target-engagement probe (EGFR): dose-dependent manner
- in vitro labeling of Cys797 and Cys775 (EGFR^L858R kinase domain): high in vitro labeling efficacy
